The text below walks through data of patent publication US20240228499A1, “MASP-2 INHIBITORS AND METHODS OF USE” (Omeros Corporation, priority 2022, published 2024).

The target of one data set is T1, MASP-2 (CCP1-CCP2-SP) (Homo sapiens, UniProt O00187).
T1 construct: 15 μL of Enzyme MASP-2 (CCP1-CCP2-SP) in Assay Buffer
The experiment in a line: Enzymatic assay for MASP-2 inhibitory activity (fluorogenic substrate). The format is biochemical. The settings on record: room temperature, 20 mM Hepes pH 7.4, 20 min. In a few lines: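 Human MASP-2 CCP1-CCP2-SP construct with a C2-cleavage-site fluorogenic substrate in 20 mM HEPES pH 7.4, 140 mM NaCl, 0.1% Tween 20, 20 min at room temperature before acetic acid stop. Activity normalised to DMSO and no-enzyme controls; IC50 taken as equivalent to Ki under linear conditions.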

In another data set the target is T2, human a-thrombin (Homo sapiens, UniProt P00734).
T2 construct: enzyme (human a-thrombin (BioPharm® Lab.)); purchased BioPharm Lab
The data set can be described thus: Enzymatic assay for thrombin (fluorogenic peptide substrate Boc-VPR-AMC). The format is biochemical. The settings on record: room temperature, 20 mM Hepes pH 7.4, 20 min. In a few lines:
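Human α-thrombin was incubated with serially diluted compound and fluorogenic substrate Boc-VPR-AMC in 20 mM Hepes pH 7.4, 140 mM NaCl, 0.1% Tween 20 at room temperature. The reaction was stopped after 20 min with 0.1 M acetic acid and fluorescence read. % activity was normalized to DMSO and no-enzyme controls, and IC50 was taken as equivalent to Ki.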

Data set [1] has as its system Lectin Pathway Activation (LPA) in human serum. The experiment in a line: Lectin pathway activation (LPA) assay in human serum, C4 deposition on mannan-coated plate. Format: biochemical. The settings on record: 1% pooled human serum, 55 minutes, room temperature. How it is done:
A Microtiter ELISA plate (Nunc-Maxi Sorp; Sigma-Aldrich®, USA) was coated with mannan sourced from Saccharomyces cerevisiae (Sigma-Aldrich®, USA) in a coating buffer comprising 33.3 mM Na2CO3 and 166.67 mM NaHCO3. The plates were incubated at room temperature overnight. Subsequently, the plates were blocked with a 5% bovine serum albumin solution (Sigma-Aldrich®, USA) prepared in PBST for 2 hours at room temperature with agitation. Varying concentrations of MASP-2 inhibitors were dispensed onto the empty plate.
To perform the assay, pooled human serum was diluted to 1% in a solution of 20 mM HEPES (pH=7.4), 140 mM NaCl, and 1 mM MgCl2. Then, 40 μl of the diluted human serum was dispensed into each well of the Microtiter ELISA plate and incubated for 55 minutes at room temperature. The C4 deposition on the mannan-coated surface was stopped using an EDTA stop solution (20 mM HEPES, pH=7.4, 140 mM NaCl, and 150 mM EDTA). Subsequently, rabbit anti-Human C4c antibody (Agilent Technologies, USA) prepared in PBST was added, and the plates were incubated at room temperature for 30 minutes with agitation, then washed with PBST, and Goat anti-rabbit IgG(H+L) HRP-conjugated (Southern Biotech®, USA) was added. The plates were again incubated at room temperature for 30 minutes with agitation, and then were washed with PBST. Following this, the Amplex® UltraRed® (Thermo Fischer Sci, USA) substrate solution was added for 16 minutes, followed by the addition of the Amplex® UltraRed® stop solution. The plates' fluorescence was measured using an i3× microplate reader (Molecular Devices, USA) with excitation at 550 nm and emission at 580 nm. The raw data generated from the plate reader was exported to GraphPad Prism® (version 10.0.3), and the non-linear regression curve was generated using the 4-parameter logistic fit equation. All data are reported as pIC50 with a 95% confidence interval.

In another data set the test system is severe IgA nephropathy. The settings on record: cited from earlier work.
The test system of data set [2] is microvascular endothelial cell injury. The settings on record: tissue culture model; cited from earlier work.
In the next data set the test system is HSCT-TMA. The settings on record: once-weekly treatment, HSCT-TMA patients; cited from earlier work.

Some results are limits rather than exact numbers.

By Ki is commonly meant a dissociation constant, usually derived from enzyme kinetics or from competition with a known ligand. A high value points to lower affinity. A word on the IC50: it is the point on the concentration scale where inhibition reaches its midpoint. Lower therefore signals higher potency.

T1 sequence (O00187 287-686 limits assumed): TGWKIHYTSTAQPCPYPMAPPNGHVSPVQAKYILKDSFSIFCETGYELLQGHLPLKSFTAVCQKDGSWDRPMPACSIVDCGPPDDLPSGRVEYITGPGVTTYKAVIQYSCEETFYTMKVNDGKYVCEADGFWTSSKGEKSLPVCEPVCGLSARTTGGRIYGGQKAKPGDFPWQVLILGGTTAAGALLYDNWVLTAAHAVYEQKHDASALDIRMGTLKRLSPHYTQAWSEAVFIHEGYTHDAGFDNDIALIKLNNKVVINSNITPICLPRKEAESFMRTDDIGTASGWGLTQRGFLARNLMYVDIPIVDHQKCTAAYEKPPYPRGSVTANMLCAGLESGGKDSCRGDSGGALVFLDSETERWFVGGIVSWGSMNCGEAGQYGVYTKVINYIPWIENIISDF

In the case of `Cc1cc(Cl)cc(CNc2cnc3n(c2=O)[C@H](C(=O)NCc2cnc4c(c2)CNC4)CC3)c1` [Compound 65, (S)-3-((3-chloro-5-methylbenzyl)amino)-N-((6,7-dihydro-5H-pyrrolo[3,4-b]pyridin-3-yl)methyl)-4-oxo-4,6,7,8-tetrahydropyrrolo[1,2-a]pyrimidine-6-carboxamide, di-trifluoroacetate], the results for the Ki at MASP-2 (CCP1-CCP2-SP) and at human a-thrombin were less than 0.5 µM and more than 25 µM, respectively. The compound further displayed an IC50 in data set [1] of less than 0.5 µM.

For narsoplimab, the tolerability result in the data set on severe IgA nephropathy (human, in vivo) was “well tolerated”. For the same compound, the “urine protein excretion decrease from baseline” value with severe IgA nephropathy (once-weekly treatment, after 3 years of follow-up) is listed as 38%. The “annualized rate of kidney function decline” value in the data set on severe IgA nephropathy (once-weekly treatment, after 3 years of follow-up, matched external comparator group 8.6) was 5.2 mL/min/yr. The “effect on HSCT-TMA plasma-mediated endothelial damage” value in data set [2] is “reduce HSCT-TMA plasma-mediated endothelial damage”. For the same compound, the “response rate based on improvement in laboratory TMA markers and clinical benefit” value in the data set with HSCT-TMA is recorded as 61%.

As for `COc1ccc(CNc2cnc3n(c2=O)[C@H](C(=O)NCc2ccc(N)nc2C)CC3)cc1F` [Compound 46, (S)-N-((6-amino-2-methylpyridin-3-yl)methyl)-3-((3-fluoro-4-methoxybenzyl)amino)-4-oxo-4,6,7,8-tetrahydropyrrolo[1,2-a]pyrimidine-6-carboxamide, di-trifluoroacetate], the Ki was less than 0.5 µM on MASP-2 (CCP1-CCP2-SP) and 0.5 to 2.5 µM at human a-thrombin. In addition, in data set [1], the IC50 was less than 0.5 µM.

For the compound `Nc1ccc2c(n1)CC[C@H]2NC(=O)[C@@H]1CCc2ncc(NCc3ccc4c(c3)COC4)c(=O)n21` [Compound 100], the values for the Ki at MASP-2 (CCP1-CCP2-SP) and on human a-thrombin were less than 0.5 µM and 2.5 to 10 µM, respectively. In data set [1], the IC50 was less than 0.5 µM.

On to `Cc1ccc(CNc2cnc3n(c2=O)[C@H](C(=O)NCc2ccc(N)nc2C)CC3)cc1C` [Compound 72, (S)-N-((6-amino-2-methylpyridin-3-yl)methyl)-3-((3,4-dimethylbenzyl)amino)-4-oxo-4,6,7,8-tetrahydropyrrolo[1,2-a]pyrimidine-6-carboxamide], for which the Ki was less than 0.5 µM at MASP-2 (CCP1-CCP2-SP) and 0.5 to 2.5 µM on human a-thrombin. The same compound returned an IC50 in data set [1] of less than 0.5 µM.

Regarding `CS(=O)(=O)c1cccc(CNc2cnc3n(c2=O)[C@H](C(=O)N[C@@H]2CCc4nc(N)ccc42)CC3)c1` [Compound 97], the Ki at MASP-2 (CCP1-CCP2-SP) is less than 0.5 µM; on human a-thrombin it was 0.5 to 2.5 µM. In data set [1], this compound gave an IC50 of less than 0.5 µM.

With `Nc1ccc2c(n1)CC[C@H]2NC(=O)[C@@H]1CCc2ncc(NCc3cccc(C(F)(F)F)c3)c(=O)n21` [Compound 105], the Ki on MASP-2 (CCP1-CCP2-SP) was less than 0.5 µM; on human a-thrombin, 2.5 to 10 µM. This compound also gave an IC50 in data set [1] of less than 0.5 µM.

`Cc1ccc(F)c(CNc2cnc3n(c2=O)[C@H](C(=O)NCc2cc4c(s2)CNC4)CC3)c1` [Compound 50, (S)—N-((5,6-dihydro-4H-thieno[2,3-C]pyrrol-2-yl)methyl)-3-((2-fluoro-5-methylbenzyl)amino)-4-oxo-4,6,7,8-tetrahydropyrrolo[1,2-a]pyrimidine-6-carboxamide, di-trifluoroacetate]: the Ki at MASP-2 (CCP1-CCP2-SP) is less than 0.5 µM; on human a-thrombin, 2.5 to 10 µM. In addition, the IC50 in data set [1] is less than 0.5 µM.

`Cc1cc(F)cc(CNc2cnc3n(c2=O)[C@H](C(=O)N[C@H](C)c2ccc(N)nc2)CC3)c1` [Compound 25, (S)—N—((R)-1-(6-aminopyridin-3-yl)ethyl)-3-((3-fluoro-5-methylbenzyl)amino)-4-oxo-4,6,7,8-tetrahydropyrrolo[1,2-a]pyrimidine-6-carboxamide, DI-trifluoroacetate]: the Ki on MASP-2 (CCP1-CCP2-SP) is less than 0.5 µM; on human a-thrombin it was more than 25 µM. This compound gave an IC50 in data set [1] of less than 0.5 µM.

Turning to `Cc1cc(C)cc(CNc2cnc3n(c2=O)[C@H](C(=O)N[C@H](C)c2ccc(N)nc2C)CC3)c1` [Compound 64, (S)-N-((R)-1-(6-amino-2-methylpyridin-3-yl)ethyl)-3-((3,5-dimethylbenzyl)amino)-4-oxo-4,6,7,8-tetrahydropyrrolo[1,2-a]pyrimidine-6-carboxamide], the Ki on MASP-2 (CCP1-CCP2-SP) was less than 0.5 µM; at human a-thrombin, 10 to 25 µM. The compound also showed an IC50 in data set [1] of less than 0.5 µM.

In the case of `Cc1cc(C)cc(CNc2cnc3n(c2=O)[C@H](C(=O)N[C@H](C)c2cc4c(s2)CNC4)CC3)c1` [Compound 106], the results for the Ki at MASP-2 (CCP1-CCP2-SP) and on human a-thrombin were less than 0.5 µM and more than 25 µM, respectively. Moreover, the IC50 in data set [1] was less than 0.5 µM.
